Values of other authors, collected in article PMC6428196 (Psychopharmacology, 2018).

Legend:
[1] = human, in vivo, sc
[2] = in vivo
baboons = settings: ref Holtyn et al. 2017

CCCCCCCCCCCCCCCC(=O)N[C@@H](CCC(=O)NCCCC[C@H](NC(=O)[C@H](C)NC(=O)[C@H](C)NC(=O)[C@H](CCC(N)=O)NC(=O)CNC(=O)[C@H](CCC(=O)O)NC(=O)[C@H](CC(C)C)NC(=O)[C@H](Cc1ccc(O)cc1)NC(=O)[C@H](CO)NC(=O)[C@H](CO)NC(=O)[C@@H](NC(=O)[C@H](CC(=O)O)NC(=O)[C@H](CO)NC(=O)[C@@H](NC(=O)[C@H](Cc1ccccc1)NC(=O)[C@@H](NC(=O)CNC(=O)[C@H](CCC(=O)O)NC(=O)[C@H](C)NC(=O)[C@@H](N)Cc1cnc[nH]1)[C@@H](C)O)[C@@H](C)O)C(C)C)C(=O)N[C@@H](CCC(=O)O)C(=O)N[C@@H](Cc1ccccc1)C(=O)N[C@H](C(=O)N[C@@H](C)C(=O)N[C@@H](Cc1c[nH]c2ccccc12)C(=O)N[C@@H](CC(C)C)C(=O)N[C@H](C(=O)N[C@@H](CCCNC(=N)N)C(=O)NCC(=O)N[C@@H](CCCNC(=N)N)C(=O)NCC(=O)O)C(C)C)[C@@H](C)CC)C(=O)O [liraglutide]
Bioavailability [1]: 55% | Brain penetration after systemic administration [2]: penetrate the brain

O=C1CC[C@@]2(O)[C@H]3Cc4ccc(O)c5c4[C@@]2(CCN3CC2CC2)[C@H]1O5 [naltrexone]
Drinking (baboons): reduced drinking to a degree comparable to our liraglutide effect
